The values that follow come from patent US9708323B2, “Tricyclic compounds as alpha-7 nicotinic acetylcholine receptor ligands” (BRISTOL-MYERS SQUIBB COMPANY, priority 2014, dated 2017).

A word on the EC50: it is the concentration needed to bring the measured effect to its halfway point.

For the first test, the target named is T1, α-7 nicotinic ACh receptor ion channel expressed in HEK 293 cells (Rattus norvegicus, UniProt Q05941).
T1 construct: expressed in transfected cells
T1 sequence (Q05941 23-502): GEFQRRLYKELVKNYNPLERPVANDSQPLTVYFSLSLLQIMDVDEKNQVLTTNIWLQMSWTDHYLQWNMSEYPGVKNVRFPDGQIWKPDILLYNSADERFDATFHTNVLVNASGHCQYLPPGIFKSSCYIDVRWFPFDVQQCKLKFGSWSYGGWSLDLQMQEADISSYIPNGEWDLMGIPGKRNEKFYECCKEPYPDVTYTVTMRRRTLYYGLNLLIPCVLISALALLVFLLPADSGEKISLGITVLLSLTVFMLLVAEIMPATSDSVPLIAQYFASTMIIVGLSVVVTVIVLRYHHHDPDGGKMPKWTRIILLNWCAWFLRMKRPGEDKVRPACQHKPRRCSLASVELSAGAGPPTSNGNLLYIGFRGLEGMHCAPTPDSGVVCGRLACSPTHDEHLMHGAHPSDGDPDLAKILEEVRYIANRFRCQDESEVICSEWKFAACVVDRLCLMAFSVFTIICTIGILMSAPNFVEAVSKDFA
The test can be described thus: Ca2+-sensitive, fluorescence-based assay for α-7 nicotinic acetylcholine receptor channel function in mammalian cells (FLIPR). It counts as cell-based. As to conditions: Table 1, agonist Ca2+ flux, read-out: FLIPR α7 (EC50). The method, then: II) A Ca^2+-Sensitive, Fluorescence-Based Assay α-7 for Nicotinic Acetylcholine Receptor Channel Function in Mammalian Cells (“FLIPR”). Summary:
Lead compounds are evaluated for agonist activity at α-7, α3β4, α4αβ2, and α1β1δ1ε sub-types of nicotinic ACh receptor ion channels expressed in mammalian HEK 293 cells. Agonist potency and efficacy values are determined from kinetic fluorescence Ca^2+ influx measurements made using a 384 well FLIPR (Fluorescence Image Plate Reader). The utility of fluorescent indicators for measuring changes in intracellular divalent cation concentrations, particularly Ca^2+, for drug discovery endeavors is well documented (Rudiger, R., et al., Nature Reviews, 2003, 4:579-586; Gonzalez J. E., et al., Receptors and Channels, 2002, 8:283-295). In this assay, channel expressing HEK cell lines seeded in 384 well assay plates are loaded with a membrane permeant fluorescent Ca^2+ indicator dye, whose 510 nm green emission signal increases in response to elevation of intracellular Ca^2+ concentration. The basal fluorescence from the cells is monitored in real time, followed by the acute addition of test compounds. If the compound is an agonist at any of the non-selective cation channels, the latter open and allow the movement of extracellular Ca^2+ ions into the cell cytoplasm, where they bind to the Ca^2+ indicator dye, and produce an increase in fluorescence output signal, which is detected by a cooled CCD imaging camera.
Reagents: The acetomethoxy (AM) ester of the Ca^2+ indicator dye Fluo-4 was obtained from InVitrogen, (Carlsbad, Calif.). Acetylcholine and all buffer constituents were purchased from Sigma Chemical Company, St. Louis, Mo. G418 and Minimal Essential Medium were purchased from InVitrogen Life Technologies, Carlsbad, Calif. Fetal bovine serum was purchased from (InVitrogen, Carlsbad, Calif.).
HEK-293 cells were grown in Minimal Essential Medium containing 10% (v/v) fetal bovine serum at 37° C. in a 5% CO2 incubator. HEK-293 cells stably expressing the ion channels were grown in the same medium with the addition of 500 μg/ml G418.
HEK-293 cells expressing the ion channels of interest were plated in 384 well, black-walled, clear-bottomed, poly-D-lysine coated plates at a density of ˜20,000 cells/well in 20 μl of Minimal Essential Medium containing 10% (v/v) fetal bovine serum and incubated for 2 days at 29° C. in a 5% CO2 incubator. Prior to assay, cells were loaded with the Fluo-4 AM ester. Cell loading was accomplished by removing the culture medium and replacing it with 30 μl/well of the AM ester of the dye (5 μM) mixed with Hanks Balanced Salt Solution (#14175-095) containing 20 mM HEPES, 2.5 mM probenecid, 0.5 mM CaCl2, 1 mM MgCl2 and 10 μM atropine. Dye loading was allowed to proceed for 90 minutes at room temperature at which time the dye loading solution was removed and replaced with 40 μl/well of Hanks buffer. Cells loaded with dye were loaded onto a FLIPR384 (Molecular Devices, Sunnyvale, Calif.). Fluo-4 dye was excited using the 488 nm line of an argon laser. Emission was filtered using a 540+/−30 nm bandpass filter. For evaluation of the effects of test compounds using the Ca^2+ flux assay, compounds to be tested were provided in assay ready plates. For nicotinic receptor ion channel expressing cells, the assay was initiated by the addition of 20 μl/well of Hanks buffer containing test compounds. For all assays, data were collected at 1 Hz for 10 seconds (baseline), at which time the compound containing stimulus buffers are added, and further measurements collected at 0.33 Hz for 3 min.
The statistical robustness of the nicotinic receptor Ca^2+ flux assays is determined from blanks and totals wells. The totals wells define maximal channel activation for each compound test plate (Maximum efficacious dose of acetylcholine), and the blanks wells which contain matched DMSO only, define zero channel activation. […]
On the technique in general: A change in cytosolic calcium serves as a functional read-out for many receptors and channels.
In the case of `O=C(c1cc2cccc(Cl)c2s1)N1CC2CN3CCC2C1C3` (stereo not shown) [Example 1, (7-chlorobenzo[b]thiophen-2-yl)(hexahydro-3,6-methanopyrrolo[2,3-c]pyridin-1(2H)-yl)methanone], the EC50 was determined as 1.7 µM.
`O=C(c1n[nH]c2ccccc12)N1CC2CN3CCC2C1C3` (stereo not shown) [Example 2, (hexahydro-3,6-methanopyrrolo[2,3-c]pyridin-1(2H)-yl)(1H-indazol-3-yl)methanone]: the EC50 was 0.25 µM.
Turning to `O=C(c1ccccc1)N1CC2CN3CCC2C1C3` (stereo not shown) [Example 3, (hexahydro-3,6-methanopyrrolo[2,3-c]pyridin-1(2H)-yl)(phenyl)methanone], the EC50 is > 100 µM.
Consider `O=C(c1ccc(Br)o1)N1CC2CN3CCC2C1C3` (stereo not shown) [Example 7], for which the EC50 was > 100 µM.
As to `O=C(c1sccc1Cl)N1CC2CN3CCC2C1C3` (stereo not shown) [Example 26], the EC50 is > 100 µM.
Still for that read-out and setting: the result for `O=C(c1cccc(Cl)n1)N1CC2CN3CCC2C1C3` (stereo not shown) [Example 35] reads > 100 µM.
On the same count and under the same terms, as for `O=C(c1cc(Cl)ccn1)N1CC2CN3CCC2C1C3` (stereo not shown) [Example 37], the figure is > 100 µM; as for `O=C(c1cc(Br)c(Br)s1)N1CC2CN3CCC2C1C3` (stereo not shown) [Example 51], > 100 µM; as for `O=C(c1sc2cc(F)ccc2c1Cl)N1CC2CN3CCC2C1C3` (stereo not shown) [Example 52], > 100 µM.
The same measure, in the same setting: the result for `Cn1nc2ccccc2c1C(=O)N1CC2CN3CCC2C1C3` (stereo not shown) [Example 54] reads > 100 µM; that for `O=C(c1c[nH]c2ncccc12)N1CC2CN3CCC2C1C3` (stereo not shown) [Example 55], > 100 µM; that for `O=C(c1cc(Br)no1)N1CC2CN3CCC2C1C3` (stereo not shown) [Example 56], > 100 µM.
Turning to `O=C(c1cc(Br)c(Br)o1)N1CC2CN3CCC2C1C3` (stereo not shown) [Example 57], the EC50 is > 100 µM.
With `CC(C)c1cc(C(=O)N2CC3CN4CCC3C2C4)on1` (stereo not shown) [Example 58], the EC50 was > 100 µM.
On to `O=C(c1cc(Br)cs1)N1CC2CN3CCC2C1C3` (stereo not shown) [Example 59], for which the EC50 was > 100 µM.
`COc1cc(Br)cc2cc(C(=O)N3CC4CN5CCC4C3C5)oc12` (stereo not shown) [Example 60]: the EC50 was > 100 µM.
Turning to `O=C(c1cc(-c2ccccc2)no1)N1CC2CN3CCC2C1C3` (stereo not shown) [Example 62], the EC50 is > 100 µM.
The same measure, in the same setting: the result for `Cc1cc(C(=O)N2CC3CN4CCC3C2C4)on1` (stereo not shown) [Example 64] reads > 100 µM.
On to `Cc1c(Br)csc1C(=O)N1CC2CN3CCC2C1C3` (stereo not shown) [Example 65], for which the EC50 was > 100 µM.
On to `O=C(c1cc(-c2ccccc2)cs1)N1CC2CN3CCC2C1C3` (stereo not shown) [Example 66], for which the EC50 is > 100 µM.
Still for that read-out and setting: the result for `O=C(c1sc2ccccc2c1Cl)N1CC2CN3CCC2C1C3` (stereo not shown) [Example 67] reads > 100 µM; that for `Cc1ccc2c(Cl)c(C(=O)N3CC4CN5CCC4C3C5)sc2c1` (stereo not shown) [Example 68], > 100 µM; that for `O=C(c1cc(-c2ccc(Br)cc2)cs1)N1CC2CN3CCC2C1C3` (stereo not shown) [Example 69], > 100 µM.
On the same count and under the same terms, as for `Cc1cc(C(=O)N2CC3CN4CCC3C2C4)oc1C` (stereo not shown) [Example 70], the figure is > 100 µM; as for `O=C(c1cc2ccc(Cl)cc2s1)N1CC2CN3CCC2C1C3` (stereo not shown) [Example 71], > 100 µM.
Regarding `O=C(c1cc2c(C(F)(F)F)cccc2s1)N1CC2CN3CCC2C1C3` (stereo not shown) [Example 72], the concentration for a half-maximal effect (EC50) is > 100 µM.
In the case of `O=C(c1cc2nccnc2s1)N1CC2CN3CCC2C1C3` (stereo not shown) [Example 75], the EC50 was > 100 µM.
Turning to `O=C(c1snc(Cl)c1Cl)N1CC2CN3CCC2C1C3` (stereo not shown) [Example 76], the half-maximal effective concentration (EC50) was > 100 µM.
With `O=C(c1ccns1)N1CC2CN3CCC2C1C3` (stereo not shown) [Example 78], the EC50 is > 100 µM.
For the molecule `O=C(c1sc2cccc(Cl)c2c1Cl)N1CC2CN3CCC2C1C3` (stereo not shown) [Example 79], the EC50 is > 100 µM.
In the case of `O=C(c1c[nH]c2ncc(Br)cc12)N1CC2CN3CCC2C1C3` (stereo not shown) [Example 80], the EC50 was 38 µM.
Regarding `O=C(c1noc2ccccc12)N1CC2CN3CCC2C1C3` (stereo not shown) [Example 81], the EC50 is 8 µM.
The same measure, in the same setting: the result for `O=C(c1onc2ccccc12)N1CC2CN3CCC2C1C3` (stereo not shown) [Example 82] reads > 100 µM; that for `CSc1sc(C(=O)N2CC3CN4CCC3C2C4)c2c1C=CCC2` (stereo not shown) [Example 83], > 100 µM.
For `O=C(c1cc(-c2ccc(Cl)cc2)cs1)N1CC2CN3CCC2C1C3` (stereo not shown) [Example 84], the EC50 was > 100 µM.
Turning to `O=C(c1sc2cccc(F)c2c1Cl)N1CC2CN3CCC2C1C3` (stereo not shown) [Example 85], the EC50 is > 100 µM.
As to `Cc1c(C(=O)N2CC3CN4CCC3C2C4)sc2ccc(Cl)cc12` (stereo not shown) [Example 86], the EC50 was > 100 µM.

Staying with this test, now noted: Table 2, agonist Ca2+ flux, read-out: FLIPR α7 (EC50).
As to `O=C(c1n[nH]c2ccccc12)N1C[C@H]2C[N@]3CC[C@H]2[C@H]1C3` [Example 88, ((3R,3aR,6S,7aS)-hexahydro-3,6-methanopyrrolo[2,3-c]pyridin-1(2H)-yl)(1H-indazol-3-yl)methanone], the EC50 amounted to 0.39 µM.
Consider `O=C(c1cc2ccccc2s1)N1C[C@H]2C[N@]3CC[C@H]2[C@H]1C3` [Example 89, benzo[b]thiophen-2-yl((3R,3aR,6S,7aS)-hexahydro-3,6-methanopyrrolo[2,3-c]pyridin-1(2H)-yl)methanone], for which the 50% effective concentration (EC50) was 18 µM.
On the same count and under the same terms, as for `Cn1nc(C(=O)N2C[C@H]3C[N@]4CC[C@H]3[C@H]2C4)c2ccccc21` [Example 90, ((3R,3aR,6S,7aS)-hexahydro-3,6-methanopyrrolo[2,3-c]pyridin-1(2H)-yl) (1-methyl-1H-indazol-3-yl)methanone], the figure is > 100 µM; as for `Cn1cc(C(=O)N2C[C@H]3C[N@]4CC[C@H]3[C@H]2C4)c2ccccc21` [Example 91, ((3R,3aR,6S,7aS)-hexahydro-3,6-methanopyrrolo[2,3-c]pyridin-1(2H)-yl)(1-methyl-1H-indol-3-yl)methanone], > 100 µM.
For the molecule `O=C(c1n[nH]c2ccc(Cl)cc12)N1C[C@H]2C[N@]3CC[C@H]2[C@H]1C3` [Example 92, ((3R,3aR,6S,7aS)-hexahydro-3,6-methanopyrrolo[2,3-c]pyridin-1(2H)-yl)(5-chloro-1H-indazol-3-yl)methanone], the EC50 amounted to 0.7 µM.
For the molecule `COc1ccc2c(C(=O)N3C[C@H]4C[N@]5CC[C@H]4[C@H]3C5)n[nH]c2c1` [Example 93, ((3R,3aR,6S,7aS)-hexahydro-3,6-methanopyrrolo[2,3-c]pyridin-1(2H)-yl)(6-methoxy-1H-indazol-3-yl)methanone], the EC50 was 2.2 µM.
For the molecule `O=C(c1cc2c(Cl)cccc2s1)N1C[C@H]2C[N@]3CC[C@H]2[C@H]1C3` [Example 94, 4-chlorobenzo[b]thiophen-2-yl((3R,3aR,6S,7aS)-hexahydro-3,6-methanopyrrolo[2,3-c]pyridin-1(2H)-yl)methanone], the EC50 is > 100 µM.
Turning to `COc1cccc2[nH]nc(C(=O)N3C[C@H]4C[N@]5CC[C@H]4[C@H]3C5)c12` [Example 95, ((3R,3aR,6S,7aS)-hexahydro-3,6-methanopyrrolo[2,3-c]pyridin-1(2H)-yl)(4-methoxy-1H-indazol-3-yl)methanone], the EC50 was > 100 µM.

The same test, now with this note: Table 3, agonist Ca2+ flux, read-out: FLIPR α7 (EC50).
As for `O=C(c1n[nH]c2ccccc12)N1C[C@@H]2C[N@@]3CC[C@@H]2[C@@H]1C3` [Example 87, ((3S,3aS,6R,7aR)-hexahydro-3,6-methanopyrrolo[2,3-c]pyridin-1(2H)-yl)(1H-indazol-3-yl)methanone], the EC50 stood at 0.37 µM.
